Consider 3 compounds from ChEMBL document CHEMBL6134895, “Strategic Design and Optimization of Umifenovir Analogues: Balancing Antiviral Efficacy and hERG Toxicity against SARS-CoV-2” (J Med Chem, 2025).

In general, IC50 refers to the concentration needed to halve the response being measured.

The test system of the test is SARS-CoV-2. Briefly: Antiviral activity against SARS CoV-2 assessed as inhibition of viral entry into HEK293T-hACE2 cells pretreated compound with HIV-1-based SARS CoV-2 pseudovirus harboring reporter NanoLuc luciferase gene for 1 hr followed by exposure to HEK293T-hACE2 cells measured after 48 hrs by Nano-Glo luciferase assay. The format is functional, organism-based. The following applies: Severe acute respiratory syndrome coronavirus 2.
Take `CCOC(=O)c1c(CSc2ccccc2)n(C)c2cc(Br)c(O)c(CN(C)C)c12`: the IC50 came to 2300 nM.

Regarding `Cc1ccc(Cn2c(CSc3c(C)cc(C)cc3C)c(C(=O)NC3CCN(C(C)C)CC3)c3cc(O)c(Br)cc32)cc1`, the IC50 was 170 nM. As for `Cc1ccc(Cn2c(CSc3c(C)cc(C)cc3C)c(C(=O)N3CCC(N4CCOCC4)CC3)c3cc(O)c(Br)cc32)cc1`, the figure is 280 nM.
